# Reference: US8609654B1, “Compounds for enzyme inhibition” (Onyx Therapeutics, Inc., priority 2006, dated 2013)
# Experiments:
# [1] = target: T1, 26S proteasome CT-L activity in lysate of HT29 (constitutive) vs Sultan/Thp1 (immunoproteasome) cells (Homo sapiens, UniProt P28062+P28074); assay: CT-L EC50 with 26S proteasome in cell lysate (Lysate ratio); format: biochemical; settings: HT29 lysate to Sultan/Thp1 lysate, >1 = prefers immunoproteasome
# T1 construct: using 26S proteasome in the context of a cell lysate; endogenous in cells; host or cells: HT29 lysate (constitutive); Sultan or THP1 lysate (immunoproteasome)
# T1 sequence (P28074 60-263): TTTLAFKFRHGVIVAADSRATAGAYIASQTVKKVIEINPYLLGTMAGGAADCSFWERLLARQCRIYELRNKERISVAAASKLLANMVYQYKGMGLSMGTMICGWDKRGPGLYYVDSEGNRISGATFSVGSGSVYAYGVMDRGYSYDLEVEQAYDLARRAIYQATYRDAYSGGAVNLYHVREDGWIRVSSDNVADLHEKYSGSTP
# T1 sequence (P28062 73-276): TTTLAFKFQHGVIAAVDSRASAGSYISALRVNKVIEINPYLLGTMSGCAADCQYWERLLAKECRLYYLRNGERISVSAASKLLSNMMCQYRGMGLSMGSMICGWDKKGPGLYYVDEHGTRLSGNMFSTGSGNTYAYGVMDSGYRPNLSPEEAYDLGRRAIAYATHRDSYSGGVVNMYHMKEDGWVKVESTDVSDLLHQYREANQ
# Procedure: Alternatively, the CT-L EC50 of a compound can be determined using 26S proteasome in the context of a cell lysate. Compound is added to lysate generated from cells that either predominantly express constitutive proteasome (e.g., HT29) or immunoproteasome (e.g., THP1). Again, the inhibitory preference is then based on the EC50 ratio (Lysate ratio).
# [2] = test system: chymotryptic-like activity of isolated 20S constitutive proteasome vs immunoproteasome; assay: Enzyme kinetic assay with isolated 20S proteasome preps, EC50 ratio of CT-L activity (20S ratio); format: biochemical; settings: constitutive proteasome to immunoproteasome, >1 = prefers immunoproteasome
# Description: Enzyme kinetic assays such as those disclosed in U.S. application Ser. No. 09/569,748, Example 2 and Stein et al., Biochem. (1996), 35, 3899-3908 use isolated 20S proteasome preps with greater than 90% constitutive proteasome subunits or immunoproteasome subunits. The inhibitory preference of the molecule is then based on the EC50 ratio of the chymotryptic-like activity of the constitutive proteasome to that of the immunoproteasome (20S ratio).
# [3] = target: T2, 20S proteasome subunit β5 vs immunoproteasome subunit LMP7 in RPMI-8226 cells (Homo sapiens, UniProt P28062+P28074); assay: ELISA-based active site assay in RPMI-8226 cells (ELISA ratio); format: cell-based; settings: EC50 ratio with β5 antibody to LMP7 antibody, RPMI-8226 cells; >1 = prefers immunoproteasome
# T2 construct: Cells expressing approximately equivalent amounts of immuno- and constitutive proteasome (e.g., RPMI-8226) are treated with test compound; endogenous in cells; host or cells: RPMI-8226 multiple myeloma cells
# T2 sequence (P28074 60-263): T1 sequence (P28074 60-263)
# T2 sequence (P28062 73-276): T1 sequence (P28062 73-276)
# Procedure: Lastly, a more cell-based approach can be utilized. Cells expressing approximately equivalent amounts of immuno- and constitutive proteasome (e.g., RPMI-8226) are treated with test compound, followed by the method for determining the activity of a proteasome inhibitor as described in application Ser. No. 11/254,541. The ratio of the EC50 generated in the ELISA-based assay using β5 antibody and LMP7 antibodies (ELISA ratio) provides the basis for determining the inhibitory preference of the test compound. […] In all three assays, a ratio of less than one denotes the molecule inhibits the CT-L activity of the constitutive proteasome better than that of the immunoproteasome. Ratios greater than one signifies the molecule inhibits chymotrypsin-like activity of the immunoproteasome better than that of the constitutive proteasome.
# A suitable ELISA assay may be found in U.S. patent application Ser. No. 11/254,541, incorporated herein in its entirety. Briefly, RPMI-8226 cells were treated with 0.1 nM to 1 μM of proteasome Inhibitor B. The samples were then washed with phosphate-buffered saline (PBS) and lysed in hypotonic buffer (20 mM Tris pH 8, 5 mM EDTA) (Tris-HCl and EDTA are available from Teknova, Inc., Hollister, Calif.). Cellular debris was removed by centrifugation at 14,000 rpm in a microfuge (4° C.) for 2 min. The supernatant was transferred to a fresh tube, snap frozen in liquid nitrogen and stored at −80° C. After thawing on ice, the samples (30 μl for assays run in triplicate) were treated with 500 nM of Inhibitor A for 1 hr at room temperature. Following treatment with Inhibitor A, the lysate was denatured by addition of seven volumes of 1% SDS (210 μl) (available from Bio-Rad, Hercules, Calif.) and heating at 99° C. with vigorous shaking for 5 min. The sample was allowed to cool and two volumes (60 μl) of 10% Triton X-100 (available from Bio-Rad, Hercules, Calif.) was added.
# Streptavidin sepharose beads (6.5 μl/well) (available from Amersham Biosciences, Piscataway, N.J.), were washed three times with 1 ml PBS (available from Mediatech, Inc., Herndon, Va.) in a microcentrifuge tube. The beads were resuspended in ELISA wash/block buffer (PBS+0.1% Tween 20+1% bovine serum albumin; 20 μl/well) and transferred to the wells of a 96 well filter plate (BSA is available from Sigma, St. Louis, Mo.; Tween is available from Calbiochem, San Diego, Calif.). Denatured whole blood or PBMC lysates that were treated with Inhibitor 3 were added to the filter plate wells containing the streptavidin sepharose beads (each sample assayed in triplicate) and incubated for 1 hr at room temperature with shaking (MultiScreen-DV Opaque Plates with low protein binding durapore membrane; available from Millipore, Billerica, Mass.). The unbound material was removed by gentle filtration and the beads were washed six times with ELISA wash/block buffer (200 μl each).
# Primary antibody to human 20S proteasome subunit (35 (rabbit polyclonal antibody; available from Biomol, Plymouth Meeting, Pa.) or human 20S immunoproteasome subunit LMP7 (rabbit polyclonal antibody; available from Affinity BioReagents, Golden, Colo.) was diluted 1:1000 in ELISA wash/block buffer, added to the beads (100 μl/well), and incubated for 1 hr at room temperature on an orbital shaker. The beads were washed six times with ELISA wash/block buffer with gentle filtration. Secondary antibody treatment (1:5000) and washing are as described for primary antibody (goat anti-rabbit antibody-HRP conjugate; available from Biosource, Camarillo, Calif.). The beads were then resuspended in 100 μl chemiluminescent detection reagent (Super Signal Pico Chemiluminescent Substrate™; available from Pierce, Rockford, Ill.) and luminescence was read on a Tecan plate reader. […]
SMILES,Lysate ratio (HT29:Sultan/Thp1) [1],20 S ratio (const:immuno) [2],Elisa ratio (beta5:LMP7) [3]
CC1(C(=O)[C@H](Cc2ccccc2)NC(=O)[C@H](Cc2c[nH]c3ccccc23)NC(=O)C(CC(=O)O)NC(=O)OCc2ccccc2)CO1 (stereo partly drawn),>3.0,>3.0,>2.0
CC(C)C[C@H](NC(=O)CN1CCOCC1)C(=O)N[C@@H](Cc1ccccc1)C(=O)N[C@@H](CC(C)C)C(=O)C1(C)CO1 (stereo partly drawn),<0.5,<0.5,<0.5
CC[C@H](C)C(NC(=O)OCc1ccccc1)C(=O)N[C@@H](Cc1c[nH]c2ccccc12)C(=O)N[C@@H](Cc1ccccc1)C(=O)C1(C)CO1 (stereo partly drawn),>3.0,>5.0,>5.0
CC(C)C[C@@H](NC(=O)OCc1ccccc1)C(=O)N[C@@H](Cc1c[nH]c2ccccc12)C(=O)N[C@@H](Cc1ccccc1)C(=O)C1(C)CO1 (stereo partly drawn),>5.0,>5.0,>5.0
C[C@H](NC(=O)OCc1ccccc1)C(=O)N[C@@H](Cc1c[nH]c2ccccc12)C(=O)N[C@@H](Cc1ccccc1)C(=O)C1(C)CO1 (stereo partly drawn),>2.0,>1.0,>5.0
CC(NC(=O)OCc1ccccc1)C(=O)N[C@@H](Cc1ccccc1)C(=O)N[C@@H](Cc1ccc(O)cc1)C(=O)C1(C)CO1 (stereo partly drawn),>3.0,>5.0,>3.0
CC1(C(=O)[C@H](Cc2ccccc2)NC(=O)[C@H](Cc2ccccc2)NC(=O)CNC(=O)OCc2ccccc2)CO1 (stereo partly drawn),>5.0,>3.0,>2.0
CC1(C(=O)[C@H](Cc2ccccc2)NC(=O)[C@H](Cc2c[nH]c3ccccc23)NC(=O)[C@@H](NC(=O)OCc2ccccc2)c2ccccc2)CO1 (stereo partly drawn),>3.0,>3.0,>1.0
CC(NC(=O)OCc1ccccc1)C(=O)N[C@@H](Cc1c[nH]c2ccccc12)C(=O)N[C@@H](Cc1ccccc1)C(=O)C1(C)CO1 (stereo partly drawn),>2.0,>1.0,>5.0
COc1ccc(C[C@H](NC(=O)C(C)NC(=O)OCc2ccccc2)C(=O)N[C@@H](Cc2ccc(O)cc2)C(=O)C2(C)CO2)cc1 (stereo partly drawn) [drawing 67],>3.0,>5.0,>5.0
CC1(C(=O)[C@H](Cc2ccccc2)NC(=O)[C@H](Cc2ccccc2)NC(=O)[C@H](CCC(N)=O)NC(=O)OCc2ccccc2)CO1 (stereo partly drawn),>3.0,>2.0,>5.0
CC(NC(=O)OCc1ccccc1)C(=O)N1Cc2ccccc2C[C@@H]1C(=O)N[C@@H](Cc1ccccc1)C(=O)C1(C)CO1 (stereo partly drawn),<1.0,<1.0,<0.5
CC1(C(=O)[C@H](Cc2ccccc2)NC(=O)[C@H](Cc2c[nH]c3ccccc23)NC(=O)[C@H](CC(N)=O)NC(=O)OCc2ccccc2)CO1 (stereo partly drawn),>5.0,>1.0,>1.0
COc1ccc(C[C@H](NC(=O)C(C)NC(=O)OCc2ccccc2)C(=O)N[C@@H](Cc2ccccc2)C(=O)C2(C)CO2)cc1 (stereo partly drawn) [drawing 86],>2.0,>2.0,>5.0
C[C@@H](NC(=O)OCc1ccccc1)C(=O)N[C@@H](Cc1c[nH]c2ccccc12)C(=O)N[C@@H](Cc1ccccc1)C(=O)C1(C)CO1 (stereo partly drawn),>5.0,>5.0,>5.0
CC(NC(=O)OCc1ccccc1)C(=O)N[C@@H](Cc1cccs1)C(=O)N[C@@H](Cc1ccccc1)C(=O)C1(C)CO1 (stereo partly drawn),>2.0,>2.0,>3.0
CC[C@H](C)[C@@H](NC(=O)OCc1ccccc1)C(=O)N[C@@H](Cc1ccccc1)C(=O)N[C@@H](Cc1ccccc1)C(=O)C1(C)CO1 (stereo partly drawn),>3.0,>5.0,>2.0
C[C@@H](NC(=O)OCc1ccccc1)C(=O)N[C@@H](Cc1c[nH]c2ccccc12)C(=O)N[C@@H](Cc1ccc(O)cc1)C(=O)C1(C)CO1 (stereo partly drawn),>5.0,>5.0,>3.0
CC1(C(=O)[C@H](Cc2ccccc2)NC(=O)[C@H](Cc2c[nH]c3ccccc23)NC(=O)C(CSCc2ccccc2)NC(=O)OCc2ccccc2)CO1 (stereo partly drawn),>3.0,>2.0,>1.0
COc1ccc(C[C@H](NC(=O)C(C)NC(=O)OCc2ccccc2)C(=O)N[C@@H](Cc2ccccc2)C(=O)C2(C)CO2)cc1 (stereo partly drawn) [drawing 66],>3.0,>5.0,>5.0
CC1(C(=O)[C@H](Cc2ccccc2)NC(=O)[C@H](Cc2ccccc2)NC(=O)[C@@H](Cc2ccccc2)NC(=O)OCc2ccccc2)CO1 (stereo partly drawn),>2.0,>5.0,>3.0
CC(NC(=O)OCc1ccccc1)C(=O)N[C@@H](Cc1ccc(C(F)(F)F)cc1)C(=O)N[C@@H](Cc1ccccc1)C(=O)C1(C)CO1 (stereo partly drawn),>2.0,>5.0,>1.0
CC(NC(=O)OCc1ccccc1)C(=O)N[C@@H](Cc1csc2ccccc12)C(=O)N[C@@H](Cc1ccccc1)C(=O)C1(C)CO1 (stereo partly drawn),>1.0,>1.0,>3.0
CC(C)C[C@H](NC(=O)OCc1ccccc1)C(=O)N[C@H](CC(C)C)C(=O)N[C@@H](Cc1ccccc1)C(=O)C1(C)CO1 (stereo partly drawn),<0.5,<0.5,<0.5
